In this test the target is T1, thromboxane A2 receptor (Cavia porcellus, UniProt A0A286Y4I8).
T1 construct: platelet-rich plasma; endogenous in cells; host or cells: guinea-pig platelets in platelet-rich plasma
T1 sequence (A0A286Y4I8 1-347): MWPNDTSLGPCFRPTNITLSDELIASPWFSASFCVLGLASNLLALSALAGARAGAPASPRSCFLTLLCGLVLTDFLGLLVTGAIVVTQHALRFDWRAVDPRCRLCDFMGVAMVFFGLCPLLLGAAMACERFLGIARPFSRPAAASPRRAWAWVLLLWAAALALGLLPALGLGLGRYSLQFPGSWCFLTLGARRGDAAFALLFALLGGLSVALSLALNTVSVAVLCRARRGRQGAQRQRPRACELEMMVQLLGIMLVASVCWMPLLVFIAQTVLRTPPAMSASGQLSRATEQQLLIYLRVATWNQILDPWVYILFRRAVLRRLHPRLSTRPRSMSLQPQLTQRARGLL
Briefly: Thromboxane A2 antagonistic effect: inhibition of U-46619-induced platelet aggregation in guinea-pig platelet-rich plasma. It counts as cell-based, guinea-pigs. As to conditions: guinea-pig PRP, U-46619 2 μg/ml, 2 min at 37° C.; read-out: IC50 (50% inhibition against platelet aggregation). The procedure:
Blood was collected from the abdominal aorta of guinea-pigs (about 400 g wt.) into 1/10 volume of 3.8% sodium citrate, and then platelet-rich plasma (PRP: 6×10^5 cells/μl) was obtained by centrifugation. A cuvette was filled with PRP 190 μl and set in an aggregometer (Hema Tracer I; Niko Bioscience). Incubation was carried out for 2 min. at 37° C. after the addition of 1 μl of dimethyl sulfoxide solution of test compounds. To the PRP, 10 μl of U-46619 (Cayman), a thromboxane A2 /prostaglandin H2 receptor agonist and potent platelet aggregation inducer, was added at the final concentration of 2 μg/ml, and platelet aggregation was measured by an aggregometer.

The structures appear in SMILES notation.

Data on 16 compounds can be found in US5597848A, “Benzenesulfonamide derivatives and use thereof” (Hokuriku Seiyaku Co., Ltd., priority 1992, dated 1997).

For `CCC(NS(=O)(=O)c1ccc(Cl)cc1)c1ccc(CCCC(=O)O)cc1` (stereo not shown) [Example 64, 4-[4-[1-(4-Chlorophenylsulfonylamino)propyl]phenyl]butyric Acid], the IC50 stood at 160 nM.

On to `CC(C)CC(NS(=O)(=O)c1ccc(Cl)cc1)c1ccc(CCCC(=O)O)cc1` (stereo not shown) [Example 70, 4-[4-[1-(4-Chlorophenylsulfonylamino)-3-methylbutyl]phenyl]butyric Acid], for which the IC50 turned out to be 320 nM.

Take `CC(C)(C)CC(NS(=O)(=O)c1ccc(Cl)cc1)c1ccc(CCCC(=O)O)cc1` (stereo not shown) [Example 72, 4-[4-[1-(4-Chlorophenylsulfonylamino)-3,3-dimethylbutyl]phenyl]butyric Acid]: the IC50 worked out at 320 nM.

Regarding `O=C(O)CCCc1ccc(C(CCCCC2CCCCC2)NS(=O)(=O)c2ccc(Cl)cc2)cc1` (stereo not shown) [Example 82, 4-[4-[1-(4-Chlorophenylsulfonylamino)-5-cyclohexylpentyl]phenyl]butyric Acid], the IC50 turned out to be 400 nM.

For `O=C(O)CCc1ccc(C(Cc2ccccc2)NS(=O)(=O)c2ccc(Cl)cc2)cc1` (stereo not shown) [Example 86, 3-[4-[1-(4-Chlorophenylsulfonylamino)-2-phenylethyl]phenyl]propionic Acid], the IC50 stood at 250 nM.

For the compound `O=C(O)CCCc1ccc(C(Cc2ccccc2)NS(=O)(=O)c2ccccc2)cc1` (stereo not shown) [Example 87, 4-[4-[2-phenyl-1-(phenylsulfonylamino)ethyl]phenyl]butyric Acid], the IC50 is 320 nM.

On to `O=C(O)CCCc1ccc(C(Cc2ccccc2)NS(=O)(=O)c2ccc(F)cc2)cc1` (stereo not shown) [Example 88, 4-[4-[1-(4-Fluorophenylsulfonylamino)-2-phenylethyl]phenyl]butyric Acid], for which the IC50 is 320 nM.

With `O=C(O)CCCc1ccc(C(Cc2ccccc2)NS(=O)(=O)c2ccc(Br)cc2)cc1` (stereo not shown) [Example 89, 4-[4-[1-(4-Bromophenylsulfonylamino)-2-phenylethyl]phenyl]butyric Acid], the IC50 stood at 32 nM.

For the compound `Cc1ccc(S(=O)(=O)NC(Cc2ccccc2)c2ccc(CCCC(=O)O)cc2)cc1` (stereo not shown) [Example 90, 4-[4-[1-(p-Tolylsulfonylamino)-2-phenylethyl]phenyl]butyric Acid], the IC50 stood at 320 nM.

As to `COc1ccc(S(=O)(=O)NC(Cc2ccccc2)c2ccc(CCCC(=O)O)cc2)cc1` (stereo not shown) [Example 91, 4-[4-[1-(4-Methoxyphenylsulfonylamino)-2-phenylethyl]phenyl]butyric Acid], the IC50 amounted to 320 nM.

`O=C(O)CCCCc1ccc(C(Cc2ccccc2)NS(=O)(=O)c2ccc(Cl)cc2)cc1` (stereo not shown) [Example 92, 5-[4-[1-(4-Chlorophenylsulfonylamino)-2-phenylethyl]phenyl]valeric Acid]: the IC50 was found to be 320 nM.

As to `O=C(O)CCCc1ccc(C(Cc2ccccc2F)NS(=O)(=O)c2ccc(Cl)cc2)cc1` (stereo not shown) [Example 93, 4-[4-[1-(4-Chlorophenylsulfonylamino)-2-(2-fluorophenyl)ethyl]phenyl]butyric Acid], the IC50 is 320 nM.

As for `O=C(O)CCCc1ccc(C(Cc2cccc(F)c2)NS(=O)(=O)c2ccc(Cl)cc2)cc1` (stereo not shown) [Example 94, 4-[4-[1-(4-Chlorophenylsulfonylamino)-2-(3-fluorophenyl)ethyl]phenyl]butyric Acid], the IC50 worked out at 63 nM.

Regarding `CCCCCCCC(NS(=O)(=O)c1ccc(Cl)cc1)c1ccc(CCCC(=O)O)cc1` (stereo not shown) [Example 100, 4-[4-[1-(4-Chlorophenylsulfonylamino)octyl]phenyl]butyric Acid], the IC50 is 790 nM.

On to `O=C(O)CCCc1ccc(C(CCCc2ccccc2)NS(=O)(=O)c2ccc(Cl)cc2)cc1` (stereo not shown) [Example 114, 4-[4-[1-(4-Chlorophenylsulfonylamino)-4-phenylbutyl]phenyl]butyric Acid], for which the IC50 was determined as 320 nM.

In the case of `O=C(O)CCCc1ccc(C(CCCCc2ccccc2)NS(=O)(=O)c2ccc(Cl)cc2)cc1` (stereo not shown) [Example 115, 4-[4-[1-(4-Chlorophenylsulfonylamino)-5-phenylpentyl]phenyl]-butyric Acid], the concentration for half-maximal inhibition (IC50) is 320 nM.
